A word on the IC50: it is the point on the concentration scale where inhibition reaches its midpoint. Read a high IC50 as a need for much substance. The CLint scaled is a measure of how fast metabolising enzymes remove a compound, apart from limits set by blood flow. Low values mean slow turnover, high ones rapid turnover. As a reminder, the microsomal CLint is the rate of metabolic loss divided by the concentration. In general, EC50 refers to the midpoint of the concentration-response curve. The term CC50 denotes the concentration at which the toxic effect on the cells reaches its halfway point. A higher CC50 goes with lower toxicity to the cells. As usually defined, the fraction remaining is what is left of the initial amount, in per cent. High values mean greater stability, low ones a greater loss.

Data set [1] in a line: Inhibition of neuraminidase in Influenza A virus A/Goose/Guangdong/SH7/2013 H5N1 using MUNANA as substrate incubated for 40 mins by […] based assay.
The nature of data set [2]: Inhibition of neuraminidase in Influenza A virus A/Babol/36/2005 H3N2 using MUNANA as substrate incubated for 40 mins by […] based assay.
Data set [3] in a line: in vitro. The conditions noted are these: human, liver microsomes.
Data set [4] in a line: in vitro. Conditions: human, liver microsomes. This is another data set of the same source.
Data set [5] is described as follows: Metabolic stability in human liver microsomes assessed as compound remaining incubated for 60 mins by LC-MS/MS analysis. Format: ADME, Microsome. The conditions noted are these: 1 h. On the technique in general: Liver microsomes are vesicles of endoplasmic reticulum, rich in cytochrome P450 enzymes.
For data set [6], the system named is Influenza A virus. Put plainly: microbe, parasite or virus in culture. The conditions noted are these: A/PR/8/34 H1N1, MDCK, 48 h.
The subject of data set [7] is Influenza A virus. The data set can be described thus: microbe, parasite or virus in culture. Conditions: A/Goose/Guangdong/SH7/2013 H5N1, CEF, 48 h.
The nature of data set [8]: Cytotoxicity against MDCK cells incubated for 48 hrs by MTT assay. Format: toxicity, cell-based, Canis lupus familiaris. Conditions: dog.
The subject of data set [9] is Influenza A virus. The data set can be described thus: Antiviral activity against Influenza A virus A/WSN/67/05 H3N2 infected in MDCK cells assessed as inhibition of plaque formation measured after 2 days. The conditions noted are these: A/WSN/67/05 H3N2, MDCK, 48 h.
The nature of data set [10]: Cytotoxicity against CEF cells incubated for 48 hrs by CCK8 assay. Format: toxicity, cell-based, Gallus gallus. The conditions noted are these: chicken. On the technique in general: Tetrazolium dyes change colour on reduction, which living cells bring about.
Data set [11] has as its system Influenza A virus. The data set can be described thus: microbe, parasite or virus in culture. Conditions: A/Goose/Jiangsu/1306/2014 H5N8, CEF, 48 h.
Data set [12] in a line: in vitro. The conditions noted are these: human, liver microsomes. The source holds these as a separate data set.

Turning to `CCC(CC)O[C@@H]1C=C(C(=O)O)C[C@H](NCc2ccc(OCc3ccc(B(O)O)cc3)cc2OC)[C@H]1NC(C)=O`, the IC50 in [1] was found to be 1750 nM; in data set [2], 510 nM.

With `CCC(CC)O[C@@H]1C=C(C(=O)O)C[C@H](NCc2ccc(OCc3ccc(B(O)O)cc3)cc2Br)[C@H]1NC(C)=O`, the IC50 in [1] was found to be 71 nM; in data set [2], 340 nM.

With `CCC(CC)O[C@@H]1C=C(C(=O)O)C[C@H](NCc2ccc(OCc3ccc(B(O)O)cc3)c(Br)c2)[C@H]1NC(C)=O`, the IC50 came out at 933000 nM in data set [1] and 17100 nM in data set [2].

Take `CCC(CC)O[C@@H]1C=C(C(=O)O)C[C@H](NCc2ccc(OCc3cccc(B(O)O)c3)cc2Br)[C@H]1NC(C)=O`: the IC50 in data set [1] came to 81 nM; in [2], 470 nM.

`CCC(CC)O[C@@H]1C=C(C(=O)O)C[C@H](NCc2ccc(OCc3ccc(B(O)O)cc3)c(F)c2)[C@H]1NC(C)=O`: the IC50 in data set [1] was 100 nM; in data set [2] it was 650 nM.

For `CCC(CC)O[C@@H]1C=C(C(=O)O)C[C@H](NCc2ccc(OCc3cccc(B(O)O)c3)cc2OC)[C@H]1NC(C)=O`, the IC50 in [1] amounted to 790 nM; in [2] it was 950 nM.

As to `CCC(CC)O[C@@H]1C=C(C(=O)O)C[C@H](NCc2ccc(OCc3cccc(B(O)O)c3)c(Br)c2)[C@H]1NC(C)=O`, the values for the IC50 in data set [1] and in data set [2] were 6930 nM and 14100 nM, respectively.

In the data set “in vitro [3]”, `O=C(O)Cc1ccccc1Nc1c(Cl)cccc1Cl` [DICLOFENAC] came in with a CLint scaled at 2 h of 200 mL/min/kg. The molecule also yielded a microsomal CLint at 2 h in “in vitro [4]” of 222 µL/min/mg.

With `CCC(CC)O[C@@H]1C=C(C(=O)O)C[C@H](N)[C@H]1NC(C)=O` [OSELTAMIVIR CARBOXYLATE], in data set [5], the Stability worked out at 114.6%. The molecule also showed a CLint scaled at 2 h in “in vitro [3]” of 11.8 mL/min/kg. Besides, the EC50 in the data set with Influenza A virus [6] came out at 56 nM; in the data set with Influenza A virus [7], 1790 nM; in the data set with Influenza A virus [9] it was 750 nM; with Influenza A virus [11], 8640 nM. Also, the EC50 at 48 h in data set [8] was more than 250000 nM. The molecule further yielded a CC50 at 48 h in data set [10] of more than 200000 nM. Also, the microsomal CLint at 2 h in the data set “in vitro [4]” came out at 13.1 µL/min/mg. Also, the IC50 in data set [1] is 61 nM; in data set [2], 9 nM.

In the case of `CC(C)NCC(O)COc1cccc2ccccc12` (centres undefined) [PROPRANOLOL], in the data set “in vitro [12]”, the amount remaining at 2 h amounted to 0.5%.

Molecule `C[C@]12CC[C@H]3[C@@H](CCC4=CC(=O)CC[C@@]43C)[C@@H]1CC[C@@H]2O` [TESTOSTERONE] registered a fraction remaining at 2 h in “in vitro [12]” of 4.1%.

The values above are taken from ChEMBL document CHEMBL6078687 (J Med Chem, 2024).
